Data: patent US11110195B2, “Esculentin 1a derivatives and uses thereof” (University of Houston System, priority 2013, dated 2021)
Read-outs that look alike come from different tables or passages of the source. Residues, ends and D or L forms follow the SMILES beside them.

Key:
[1] = test system: P. aeruginosa ATCC 27853 biofilm; settings: 2 hours treatment
Description: (§1) Data points are the mean±SEM of three independent experiments. The levels of statistically significant differences between the two peptides are indicated as follows *P<0.05, **P<0.01, ***P<0.001
(§2) The reference strain and the clinical isolates were grown at 37° C. in Luria-Bertani broth (LB) to mid-log phase (optical density of 0.8 at 590 nm). With the help of tweezers, silicone hydrogel narafilcon A soft CL (1-Day ACUVUE TruEye) were removed from the manufacturer's containers, and washed thrice in phosphate buffered saline (PBS). The lenses were then immersed into wells of a 24-multiwell plate, each well containing 1 mL of bacterial inoculum in 1/10 LB at a concentration of 5×10^4 colony-forming units (CFU)/mL. Noteworthy, the number of bacteria isolated from CL storage cases has been reported to range from 1 to 6×10^4 CFU/case (2, 10). Therefore, in order to reproduce a more realistic level of bacteria to which CLs can be exposed, an inoculum size of 5×10^4 CFU/mL was used for biofilm formation.
(§3) The plate was then incubated in a humidified incubator at 37° C. at 125 rpm to allow biofilm formation on the surface of both lens sides. After 20 hours of incubation, each lens was washed thrice with PBS to remove any non-adherent planktonic cells.
(§4) The lenses were then transferred into wells of a new 24-multiwell plate, each well containing serial dilutions of Esc-1a(1-21)NH2 and Esc-1a(1-21)-1cNH2 in PBS. For […] controls, the lenses were immersed in sterile PBS. The new plate was then incubated at 37° C. for 2 hours with gentle shaking (125 rpm). After peptide treatment, each lens was washed thrice in PBS and transferred into wells of another 24-multiwell plate, each well containing 350 μL of 0.5 mg/mL of 3-(4,5-dimethylthiazol-2-yl)-2,5-diphenyltetrazolium bromide (MTT, from Sigma Aldrich, Milan, Italy) in Hank's solution (136 mM NaCl; 0.34 mM Na2HPO4; 0.44 mMKH2PO4; 5.4 mM KCl; 4.1 mM NaHCO3 pH 7.2, supplemented with 5.5 mM D-glucose) as previously reported (8). The killing of biofilms was determined as a function of the inhibition of MTT reduction to insoluble formazan crystals by bacterial reductases. The plate was incubated again for 2 hours (125 rpm) at 37° C. Formazan crystals were solubilized by the addition of acidified isopropanol. During overnight incubation at room temperature the resulting purple color was absorbed by the lens. Afterward, each lens was soaked in absolute ethanol (500 μL in each well) to decolor it. Aliquots of 100 μL were finally transferred to the wells of a 96-multiwell plate and absorbance was measured at 590 nm using a microplate reader (Infine M 200, Tecan). Untreated bacterial cells in PBS were the control. Percentage of killing was calculated according to the formula: [1−(Abs of treated samples−Abs of blank/Abs of control samples-Abs of blank)][…], where the blank was the solvent PBS.

P. aeruginosa R1 biofilm = settings: 4 μM, 2 hours treatment
Description: as §1, §2, §3, §4

[2] = test system: human telomerase immortalized corneal epithelial cells (hTCEpi); assay: Wound healing (cell migration) assay, corneal epithelial cells; type: cell-based; settings: hTCEpi monolayer
Description: The percentage of cell-covered area at each time point was determined and is reported on the y-axis. Control (Ctrl) represents cells not treated with the peptide. All data are the mean of at least three independent experiments ±SE.
To determine cell migration after treatment with Esc-1a(1-21)NH2, a wound healing assay was performed using human telomerase immortalized corneal epithelial cells (hTCEpi) (FIG. 9). Cells were cultured in Keratinocyte growth Medium-2 supplemented with growth factors and Normocin […] (KGM-2g). Cell migration was studied as follows: hTCEpi cells (70,000) suspended in KGM-2g were seeded on each side of ibidi culture inserts for live cell analysis (Ibidi, Munich, Germany). Inserts were placed into 35 mm dishes and incubated at 37° C. and 5% CO2 to allow cells grow to confluence. Afterwards, inserts were removed with sterile tweezers to create a cell-free area (“wound”) of approximately 500 μm; after a wash with 1 ml of PBS, 1 ml of Dulbecco's modified Eagle's medium (DMEM) supplemented with 4 mM L-glutamine, 5% fetal bovine serum (FBS) and the peptide at different concentrations was added. The dishes with inserts were placed in an appropriate incubator and the cells were allowed to migrate. […] The percentage of cell-covered area at each time was determined by WIMASIS Image Analysis program. […]

For `CC[C@H](C)[C@H](NC(=O)CN)C(=O)N[C@@H](Cc1ccccc1)C(=O)N[C@@H](CO)C(=O)N[C@@H](CCCCN)C(=O)N[C@@H](CC(C)C)C(=O)N[C@@H](C)C(=O)NCC(=O)N[C@@H](CCCCN)C(=O)N[C@@H](CCCCN)C(=O)N[C@H](C(=O)N[C@@H](CCCCN)C(=O)N[C@@H](CC(N)=O)C(=O)N[C@@H](CC(C)C)C(=O)N[C@@H](CC(C)C)C(=O)N[C@H](C(=O)N[C@@H](CO)C(=O)NCC(=O)N[C@@H](CC(C)C)C(=O)N[C@@H](CCCCN)C(=O)NCC(N)=O)[C@@H](C)CC)[C@@H](C)CC` [Esc-1a(1-21)NH2] (H-GIFSKLAGKKIKNLLISGLKG-NH2; N-terminus assumed), the biofilm killing ([1]; 4 μM) was “activity was lost”, the biofilm killing ([1]; 32 μM) was “more than 50%” and the biofilm killing (P. aeruginosa R1 biofilm) was 0%. For the same compound, the “optimal concentration allowing complete coverage of the wound field” value [2] was 0.005 µM and the “time to maximum cell-covered area after peptide addition” value [2] was 9 to 12 h.
